Each block holds one compound with its values, some of them ahead of it. Calls of active or inactive are those of the source. No cut-off for these calls is given here.
What was measured:
[1] = target: Epithelial discoidin domain-containing receptor 1 (Homo sapiens, UniProt Q08345); assay: biochemical
[2] = target: Tyrosine-protein kinase ABL1 (Homo sapiens, UniProt P00519); assay: Inhibition of human full length recombinant His-tagged ABL1 expressed in baculovirus infected Sf9 insect cells using tyrosine 2 peptide as substrate preincubated for 1 hr measured after 2 hrs in presence of ATP by FRET-based Z'-Lyte assay
Chain of Tyrosine-protein kinase ABL1 (P00519 whole entry): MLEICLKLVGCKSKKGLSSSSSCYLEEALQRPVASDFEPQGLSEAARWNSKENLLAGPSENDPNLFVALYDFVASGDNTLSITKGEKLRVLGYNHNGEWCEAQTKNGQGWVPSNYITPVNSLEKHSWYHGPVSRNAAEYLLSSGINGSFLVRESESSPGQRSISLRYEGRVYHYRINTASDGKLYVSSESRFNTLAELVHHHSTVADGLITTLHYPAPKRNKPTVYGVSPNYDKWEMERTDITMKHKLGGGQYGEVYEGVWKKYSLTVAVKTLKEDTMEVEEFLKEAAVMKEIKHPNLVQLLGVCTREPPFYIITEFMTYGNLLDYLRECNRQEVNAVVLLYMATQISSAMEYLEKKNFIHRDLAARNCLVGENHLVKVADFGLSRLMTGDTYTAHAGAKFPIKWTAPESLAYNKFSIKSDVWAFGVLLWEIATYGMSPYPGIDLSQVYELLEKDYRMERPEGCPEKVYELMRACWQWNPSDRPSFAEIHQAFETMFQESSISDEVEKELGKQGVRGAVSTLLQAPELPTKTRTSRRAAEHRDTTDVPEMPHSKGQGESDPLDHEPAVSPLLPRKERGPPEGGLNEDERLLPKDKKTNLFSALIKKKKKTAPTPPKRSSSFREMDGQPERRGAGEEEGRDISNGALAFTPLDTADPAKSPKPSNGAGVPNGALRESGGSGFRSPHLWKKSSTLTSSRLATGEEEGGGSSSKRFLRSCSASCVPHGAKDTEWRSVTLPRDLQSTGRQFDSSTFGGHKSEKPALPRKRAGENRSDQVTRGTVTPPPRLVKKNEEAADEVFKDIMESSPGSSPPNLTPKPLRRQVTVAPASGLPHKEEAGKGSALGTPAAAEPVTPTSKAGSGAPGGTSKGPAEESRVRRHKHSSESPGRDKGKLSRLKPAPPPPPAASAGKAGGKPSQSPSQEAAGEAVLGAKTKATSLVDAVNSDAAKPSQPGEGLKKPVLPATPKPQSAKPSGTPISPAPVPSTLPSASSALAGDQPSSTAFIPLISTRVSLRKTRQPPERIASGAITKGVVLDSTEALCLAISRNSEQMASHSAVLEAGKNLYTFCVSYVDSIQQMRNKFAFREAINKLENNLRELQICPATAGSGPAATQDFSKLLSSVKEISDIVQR

Mus musculus [3] = assay: Protection against bleomycin-induced lung fibrosis in C57BL/6 mouse assessed as decrease in alpha-smooth muscle actin level in lung at 10 to 50 mg/kg administered via oral gavage bid 14 days post bleomycin treatment measured on day 28 by immunoblot analysis; assay type: functional, organism-based
Mus musculus [4] = assay: Protection against bleomycin-induced lung fibrosis in C57BL/6 mouse assessed as decrease in hydroxyproline level in lung administered via oral gavage bid 14 days post bleomycin treatment measured on day 28 […]; assay type: functional, organism-based
[5] = Half life in Sprague-Dawley rat at 4 mg/kg, iv by HPLC/MS analysis; assay type: ADME, organism-based; conditions: in vivo
[6] = Oral bioavailability in ICR mouse at 4 mg/kg measured after 15 mins to 24 hrs by HPLC/MS analysis; assay type: ADME, organism-based; conditions: in vivo
Mus musculus [7] = assay: Protection against bleomycin-induced lung fibrosis in C57BL/6 mouse assessed as decrease in fibronectin level in lung at 10 to 50 mg/kg administered via oral gavage bid 14 days post bleomycin treatment measured on day 28 by immunoblot analysis; assay type: functional, organism-based
[8] = AUC (0 to infinity) in ICR mouse at 4 mg/kg, po measured after 15 mins to 24 hrs by HPLC/MS analysis; assay type: ADME, organism-based; set-up: dose 4 mg/kg, route oral, time infinity; conditions: in vivo
[9] = Cmax in Sprague-Dawley rat at 4 mg/kg, iv measured after 0.03 to 24 hrs by HPLC/MS analysis; assay type: ADME, organism-based; set-up: dose 4 mg/kg, route intravenous; conditions: in vivo
[10] = Cmax in Sprague-Dawley rat at 20 mg/kg, po measured after 0.03 to 24 hrs by HPLC/MS analysis; assay type: ADME, organism-based; set-up: dose 20 mg/kg, route oral; conditions: in vivo
[11] = Tmax in Sprague-Dawley rat at 20 mg/kg, po by HPLC/MS analysis; assay type: ADME, organism-based; conditions: in vivo
[12] = Cmax in ICR mouse at 4 mg/kg, po measured after 15 mins to 24 hrs by HPLC/MS analysis; assay type: ADME, organism-based; set-up: dose 4 mg/kg, route oral; conditions: in vivo
Mus musculus [13] = assay: Protection against bleomycin-induced lung fibrosis in C57BL/6 mouse assessed as increase in alveolar spaces administered via oral gavage bid 14 days post bleomycin treatment measured on day 28 by Massons trichrome staining; assay type: functional, organism-based
[14] = AUC (0 to infinity) in ICR mouse at 1 mg/kg, iv measured after 5 mins to 24 hrs by HPLC/MS analysis; assay type: ADME, organism-based; set-up: dose 1 mg/kg, time infinity, route intravenous; conditions: in vivo
[15] = Tmax in ICR mouse at 4 mg/kg, po by HPLC/MS analysis; assay type: ADME, organism-based; conditions: in vivo
[16] = Cmax in ICR mouse at 1 mg/kg, iv measured after 5 mins to 24 hrs by HPLC/MS analysis; assay type: ADME, organism-based; set-up: dose 1 mg/kg, route intravenous; conditions: in vivo
Ephrin type-A receptor 8 = target: T1, Ephrin type-A receptor 8 (Homo sapiens, UniProt P29322); assay: Binding affinity to wild type human partial length EPHA8 (608 to 920 residues) expressed in bacterial expression system preincubated for 1 hr measured after 30 mins by qPCR method
T1 sequence (P29322 whole entry): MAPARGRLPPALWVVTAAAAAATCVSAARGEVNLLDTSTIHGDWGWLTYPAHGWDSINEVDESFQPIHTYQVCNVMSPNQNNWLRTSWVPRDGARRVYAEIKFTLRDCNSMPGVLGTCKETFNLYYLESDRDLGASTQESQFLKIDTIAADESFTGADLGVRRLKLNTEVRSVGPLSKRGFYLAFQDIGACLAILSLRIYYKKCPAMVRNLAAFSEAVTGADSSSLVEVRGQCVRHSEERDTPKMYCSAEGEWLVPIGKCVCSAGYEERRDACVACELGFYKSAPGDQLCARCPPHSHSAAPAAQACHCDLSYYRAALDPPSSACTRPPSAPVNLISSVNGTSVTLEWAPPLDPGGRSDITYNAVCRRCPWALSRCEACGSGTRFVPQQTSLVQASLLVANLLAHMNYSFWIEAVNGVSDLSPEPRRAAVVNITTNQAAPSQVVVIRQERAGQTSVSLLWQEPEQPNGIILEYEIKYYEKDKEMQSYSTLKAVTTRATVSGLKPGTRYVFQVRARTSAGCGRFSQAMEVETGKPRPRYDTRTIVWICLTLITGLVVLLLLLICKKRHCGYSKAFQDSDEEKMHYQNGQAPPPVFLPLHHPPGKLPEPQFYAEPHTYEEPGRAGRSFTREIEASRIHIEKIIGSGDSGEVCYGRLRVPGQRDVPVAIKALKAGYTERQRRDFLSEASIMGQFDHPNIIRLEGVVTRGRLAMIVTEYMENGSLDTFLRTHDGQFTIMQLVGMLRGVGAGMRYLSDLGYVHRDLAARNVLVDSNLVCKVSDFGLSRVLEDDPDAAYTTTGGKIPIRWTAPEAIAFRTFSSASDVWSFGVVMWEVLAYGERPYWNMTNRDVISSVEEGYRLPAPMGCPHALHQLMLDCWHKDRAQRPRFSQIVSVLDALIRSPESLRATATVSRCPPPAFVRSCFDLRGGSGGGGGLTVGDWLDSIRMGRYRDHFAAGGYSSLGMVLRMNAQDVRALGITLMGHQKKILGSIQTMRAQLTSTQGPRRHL

[17] = Oral bioavailability in Sprague-Dawley rat at 20 mg/kg measured after 0.03 to 24 hrs by HPLC/MS analysis; assay type: ADME, organism-based; conditions: in vivo
[18] = AUC (0 to infinity) in Sprague-Dawley rat at 20 mg/kg, po measured after 0.03 to 24 hrs by HPLC/MS analysis; assay type: ADME, organism-based; set-up: dose 20 mg/kg, route oral, time infinity; conditions: in vivo
[19] = target: T2, Muscle, skeletal receptor tyrosine-protein kinase (Homo sapiens, UniProt O15146); assay: Binding affinity to wild type human partial length MUSK (553 to 869 residues) expressed in bacterial expression system preincubated for 1 hr measured after 30 mins by qPCR method
T2 sequence (O15146 whole entry): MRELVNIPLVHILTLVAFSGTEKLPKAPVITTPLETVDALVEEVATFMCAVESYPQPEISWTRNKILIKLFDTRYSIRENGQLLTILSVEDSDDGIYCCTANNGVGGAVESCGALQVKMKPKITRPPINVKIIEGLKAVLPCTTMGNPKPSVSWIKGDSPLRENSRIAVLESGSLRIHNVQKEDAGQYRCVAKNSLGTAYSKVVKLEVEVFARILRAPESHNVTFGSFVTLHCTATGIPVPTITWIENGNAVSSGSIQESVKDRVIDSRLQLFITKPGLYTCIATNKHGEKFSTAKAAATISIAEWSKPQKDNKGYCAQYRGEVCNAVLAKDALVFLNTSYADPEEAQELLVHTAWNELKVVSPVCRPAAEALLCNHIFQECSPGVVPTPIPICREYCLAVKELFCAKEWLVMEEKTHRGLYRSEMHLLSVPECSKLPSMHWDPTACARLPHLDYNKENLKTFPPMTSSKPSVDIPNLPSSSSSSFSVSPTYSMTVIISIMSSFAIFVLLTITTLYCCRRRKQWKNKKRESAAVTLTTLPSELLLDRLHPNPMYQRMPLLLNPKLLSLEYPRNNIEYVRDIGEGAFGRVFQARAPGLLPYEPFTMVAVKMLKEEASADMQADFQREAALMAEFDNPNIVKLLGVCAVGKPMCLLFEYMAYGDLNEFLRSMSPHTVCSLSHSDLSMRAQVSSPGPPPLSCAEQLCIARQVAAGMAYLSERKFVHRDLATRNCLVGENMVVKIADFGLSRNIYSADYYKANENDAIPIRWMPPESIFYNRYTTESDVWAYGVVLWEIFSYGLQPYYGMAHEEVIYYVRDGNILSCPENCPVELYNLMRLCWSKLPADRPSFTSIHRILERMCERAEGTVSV

[20] = AUC (0 to infinity) in Sprague-Dawley rat at 4 mg/kg, iv measured after 0.03 to 24 hrs by HPLC/MS analysis; assay type: ADME, organism-based; set-up: dose 4 mg/kg, time infinity, route intravenous; conditions: in vivo

Chain of Epithelial discoidin domain-containing receptor 1 (Q08345 whole entry, the tested form may be a part): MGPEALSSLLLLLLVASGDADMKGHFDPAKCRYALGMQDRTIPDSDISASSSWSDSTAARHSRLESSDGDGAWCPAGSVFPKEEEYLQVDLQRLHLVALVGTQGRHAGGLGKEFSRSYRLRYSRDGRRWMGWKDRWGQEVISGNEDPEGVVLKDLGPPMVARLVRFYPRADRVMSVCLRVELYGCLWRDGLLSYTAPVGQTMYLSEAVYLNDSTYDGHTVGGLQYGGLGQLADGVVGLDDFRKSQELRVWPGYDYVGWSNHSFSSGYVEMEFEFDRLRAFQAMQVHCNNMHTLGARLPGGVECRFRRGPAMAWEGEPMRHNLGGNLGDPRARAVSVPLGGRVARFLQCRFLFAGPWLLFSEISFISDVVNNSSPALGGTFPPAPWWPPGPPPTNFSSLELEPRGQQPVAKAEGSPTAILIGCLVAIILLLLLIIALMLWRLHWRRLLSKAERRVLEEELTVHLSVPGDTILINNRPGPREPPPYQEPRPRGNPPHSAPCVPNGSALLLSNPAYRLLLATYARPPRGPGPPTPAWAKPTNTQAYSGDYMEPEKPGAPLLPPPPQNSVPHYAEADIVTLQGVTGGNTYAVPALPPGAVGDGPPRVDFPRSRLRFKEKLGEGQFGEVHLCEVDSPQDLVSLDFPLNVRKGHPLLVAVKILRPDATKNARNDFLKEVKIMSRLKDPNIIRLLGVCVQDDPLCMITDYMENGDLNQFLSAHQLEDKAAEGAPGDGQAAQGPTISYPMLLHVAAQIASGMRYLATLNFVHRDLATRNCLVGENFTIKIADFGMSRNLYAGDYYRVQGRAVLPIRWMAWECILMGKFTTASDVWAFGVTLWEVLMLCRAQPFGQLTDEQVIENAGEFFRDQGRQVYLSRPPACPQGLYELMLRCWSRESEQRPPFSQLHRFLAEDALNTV

IC50 [1]: > 3 µM | IC50 [2]: > 10 µM
Compound: CC(C)[C@@H]1CN(c2cncnc2)Cc2cc(C(=O)Nc3cc(CN4CCN(C)CC4)cc(C(F)(F)F)c3)ccc21

IC50 [1]: > 3 µM | IC50 [2]: > 10 µM
Compound: CN1CCN(Cc2cc(NC(=O)c3ccc4c(c3)CN(c3ccccc3)CC4)cc(C(F)(F)F)c2)CC1

half-life [5]: 1.5 h | bioavailability [6]: 41.6% | AUC(0-inf) [8]: 2550 ng·h/mL | Cmax [9]: 473 ng/mL | Cmax [10]: 342 ng/mL | Tmax [11]: 1 h | Cmax [12]: 2190 ng/mL | AUC(0-inf) [14]: 1210 ng·h/mL | IC50 [2]: > 10 µM | Tmax [15]: 0.5 h | Cmax [16]: 2250 ng/mL | Kd (Ephrin type-A receptor 8): 0.55 µM | bioavailability [17]: 66.8% | AUC(0-inf) [18]: 788 ng·h/mL | Kd [19]: 0.53 µM | AUC(0-inf) [20]: 236 ng·h/mL
Compound: Cc1cn(-c2cc(NC(=O)c3ccc4c(c3)CN(c3cncnc3)C[C@@H]4C)cc(C(F)(F)F)c2)cn1
Activity (Mus musculus [3]): Active | Activity (Mus musculus [4]): Dose-dependent effect | Activity (Mus musculus [7]): Active | Activity (Mus musculus [13]): Dose-dependent effect

IC50 [1]: > 1 µM | IC50 [2]: > 10 µM
Compound: CC(C)[C@H]1CN(c2cncnc2)Cc2cc(C(=O)Nc3cc(CN4CCN(C)CC4)cc(C(F)(F)F)c3)ccc21

IC50 [2]: > 10 µM
Compound: Cc1cn(-c2cc(NC(=O)c3ccc4c(c3)CN(c3cncnc3)C[C@H]4C)cc(C(F)(F)F)c2)cn1

Source: ChEMBL document CHEMBL4425102, “Structure-Based Design of Tetrahydroisoquinoline-7-carboxamides as Selective Discoidin Domain Receptor 1 (DDR1) Inhibitors” (J Med Chem, 2016)
